Entries after “also recorded” stand apart in the source; their conditions may differ. One block for each compound: values may come before it.
Experiments:
p38γ [1] = assay: Time-resolved fluorescence energy transfer enzyme kinetic analysis; assay type: biochemical
Hut78 cells [2] = assay: CellTiterGlo cell viability, Hut78; assay type: cell-based, human; settings: for effect on viability of Hut78 cells: varying concentrations, 72 hr; for IC50: Homo sapiens, HuT78, 72 h
p38 γ = target: T1, p38 γ (Homo sapiens, UniProt P53778); assay: ADP-Glo in vitro kinase assay, p38γ; assay type: biochemical; design: human recombinant p38 α, β, γ or δ protein (active full-length); purchased SignalChem; host or cells: baculovirus in Sf9 insect cells; settings: for inhibitory kinase activity against p38γ: PI3K inhibitors at 1 and 10 μM; for IC50: in vitro inhibition assay
T1 sequence (P53778 1-367): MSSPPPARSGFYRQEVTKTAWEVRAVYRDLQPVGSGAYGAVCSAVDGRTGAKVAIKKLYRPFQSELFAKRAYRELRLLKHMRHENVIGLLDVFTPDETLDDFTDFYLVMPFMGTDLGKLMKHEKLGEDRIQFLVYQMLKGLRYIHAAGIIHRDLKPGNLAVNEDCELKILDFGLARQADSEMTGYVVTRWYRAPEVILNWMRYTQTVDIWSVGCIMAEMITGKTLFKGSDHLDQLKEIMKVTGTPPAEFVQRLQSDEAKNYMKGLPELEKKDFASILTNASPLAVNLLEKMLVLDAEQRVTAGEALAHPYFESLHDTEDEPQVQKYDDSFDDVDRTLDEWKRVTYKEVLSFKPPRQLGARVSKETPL

[3] = test system: phosphorylation of Akt at ser473; assay: Western blot of Akt Ser473 phosphorylation in Hut78; assay type: cell-based, human; settings: Hut78, 4 hr treatment
healthy CD4+ T cells = assay: Apoptosis and growth in healthy CD4+ T cells; assay type: cell-based, human; settings: FIG. 19E
H9 cells = assay: CellTiterGlo cell viability, H9; settings: Homo sapiens, H9, 72 h
Hut78 cells [4] = assay: Hut78 cell proliferation / viability; assay type: cell-based, human
PI3Kγ = PI3Kγ (Homo sapiens, UniProt P48736); settings: PI3Kγ isoform; cited from earlier work
p38δ = target: T2, p38δ (Homo sapiens, UniProt O15264); assay: p38 isoform kinase activity (FIG. 20A); assay type: biochemical; design: human recombinant p38 α, β, γ or δ protein (active full-length); purchased SignalChem; host or cells: baculovirus in Sf9 insect cells; settings: p38δ (printed "6")
T2 sequence (O15264 1-365): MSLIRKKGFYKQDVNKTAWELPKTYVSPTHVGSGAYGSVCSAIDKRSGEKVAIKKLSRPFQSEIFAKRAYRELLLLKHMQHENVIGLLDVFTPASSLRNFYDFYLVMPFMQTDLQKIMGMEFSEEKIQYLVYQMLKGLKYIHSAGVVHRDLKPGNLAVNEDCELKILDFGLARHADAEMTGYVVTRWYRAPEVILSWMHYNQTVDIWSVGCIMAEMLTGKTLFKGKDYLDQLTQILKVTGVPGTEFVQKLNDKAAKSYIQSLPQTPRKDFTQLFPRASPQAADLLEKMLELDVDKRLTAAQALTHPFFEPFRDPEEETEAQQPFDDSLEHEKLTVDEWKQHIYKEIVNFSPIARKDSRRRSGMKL

[5] = test system: PBMCs isolated from an SS patient; assay: Annexin V/PI flow cytometry, SS patient PBMCs; assay type: cell-based, human; settings: SS PBMC, 200 nM, 24 h
From the text: (§1) Data presented are one experiment in triplicate.

CTCL cells [6] = assay: CTCL cell growth / killing; assay type: cell-based
HH cells = assay: CellTiterGlo cell viability, HH; assay type: cell-based; settings: Homo sapiens, 72 h
[7] = test system: p38γ substrate DLGH1 at Ser158; assay: Immunohistochemistry in F7-treated CTCL xenograft mouse tissue; assay type: in vivo; settings: data not shown
Hut78 CTCL cell line = assay: Annexin V/PI flow cytometry, Hut78; assay type: cell-based, human; settings: Hut78, 200 nM, 24 h
From the text: as §1

p38γ [8] = assay: p38 isoform kinase activity (FIG. 20A); assay type: biochemical
[9] = test system: p38γ substrate DLGH1 at Ser158; assay: Western blot of Hut78 cells for phosphorylation of p38γ substrate; assay type: cell-based, human
SS patient cells = assay: Apoptosis and growth in primary SS patient cells; assay type: cell-based, human
Hut78 xenografts = assay: Hut78 xenograft tumor growth in mice; assay type: in vivo
p38γ [10] = assay: p38γ mRNA level and protein expression (Western blot); assay type: cell-based; settings: Western blot, 24 hr, 500 nM
From the text: qRT-PCR (real-time quantitative reverse transcription PCR): Total RNA was generated using TRIZOL reagent (Life Technologies, Carlsbad, Calif.) followed by double DNase treatment and column purification using Qiagen RNeasy Clean-up (Qiagen, Germantown, Md.). The Invitrogen […] III First-Strand Synthesis System was used for cDNA synthesis and TaqMan 5700 Sequence Detection System (Applied Biosystems, Foster City, Calif.) were used for qRT-PCR. All PCR reactions were run in triplicate. The amplified transcripts were quantified using the comparative CT method as described. cDNA and primers for MAPK11, 12, 13, and 14 and GAPDH (Table 9) were added to SYBR GREEN PCR Master Mix (SYBR Green I Dye, […]® DNA polymerase, dNTPs with dUTP and optimal buffer components; Applied Biosystems) and subjected to PCR amplification (1 cycle at 95° C. for 3 min; 35 cycles at 95° C. for 15 s and 55° C. for 30 s; 1 cycle at 50° C. for 2 min).

p38γ [11] = assay: p38γ inhibition at the concentration used in the RNAi library screen; settings: 10 uM, data not shown
From the text: Synthetic lethal RNAi screen. We will use a synthetic lethal RNAi screen in the presence of sub-lethal p38γ inhibition to identify critical downstream signaling components in CTCL (FIG. 31). We will transduce control and p38γ inhibitor-treated Hut78 CTCL cells with a pooled retroviral RNAi library that targets genes involved in human cancers. Because loss of p38γ alone causes CTCL cell death, we will titrate the dose and/or length of exposure to the p38γ inhibitor to ensure a sub-lethal effect. The target gene of an shRNA that causes death in cells treated with sub-lethal p38γ inhibitor but not control cells will be identified as synthetic lethal/synergistic. Based on our preliminary data showing synergy between F7 and HDACi, we are expecting to identify HDAC family members in the RNAi screen. We will further narrow down the corresponding HDACi for each HDAC member identified, and study potential synergistic effects to achieve of killing CTCL cells. For example, our preliminary data has shown using an RNAi library plus the p38 inhibitor Ly2228820, we have successfully selected loss of HDAC3 as a synergistically lethal element to p38 pathway inhibition, including α, β, and γ isoforms of p38 by LY2228820 (10 uM) […] We will further test the combination of p38γ inhibition with several HDAC3 inhibitors (e.g., RGFP966) for further mechanistic study in Hut78 cells.

CTCL cells [12] = assay: Cell viability, CTCL cells (pirfenidone); assay type: cell-based; settings: Homo sapiens, read-out: IC50 CTCL cell growth / cell killing
p38γ [13] = target: T3, p38γ (Mus musculus, UniProt O08911); settings: requires a high dose; cited from earlier work
T3 construct: host or cells: mice (in vivo)
T3 sequence (O08911 whole entry): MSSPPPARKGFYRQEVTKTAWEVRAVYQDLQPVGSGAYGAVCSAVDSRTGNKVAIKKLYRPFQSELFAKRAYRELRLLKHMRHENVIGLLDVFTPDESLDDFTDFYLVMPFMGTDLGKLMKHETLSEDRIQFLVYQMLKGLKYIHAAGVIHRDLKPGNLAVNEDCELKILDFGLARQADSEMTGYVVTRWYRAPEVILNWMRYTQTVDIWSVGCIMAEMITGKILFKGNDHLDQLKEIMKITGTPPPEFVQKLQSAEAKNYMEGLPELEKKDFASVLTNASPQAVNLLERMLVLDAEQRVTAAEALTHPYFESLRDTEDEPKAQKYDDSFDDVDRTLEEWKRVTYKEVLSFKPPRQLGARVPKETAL

Chain of PI3Kγ (P48736 whole entry, canonical isoform): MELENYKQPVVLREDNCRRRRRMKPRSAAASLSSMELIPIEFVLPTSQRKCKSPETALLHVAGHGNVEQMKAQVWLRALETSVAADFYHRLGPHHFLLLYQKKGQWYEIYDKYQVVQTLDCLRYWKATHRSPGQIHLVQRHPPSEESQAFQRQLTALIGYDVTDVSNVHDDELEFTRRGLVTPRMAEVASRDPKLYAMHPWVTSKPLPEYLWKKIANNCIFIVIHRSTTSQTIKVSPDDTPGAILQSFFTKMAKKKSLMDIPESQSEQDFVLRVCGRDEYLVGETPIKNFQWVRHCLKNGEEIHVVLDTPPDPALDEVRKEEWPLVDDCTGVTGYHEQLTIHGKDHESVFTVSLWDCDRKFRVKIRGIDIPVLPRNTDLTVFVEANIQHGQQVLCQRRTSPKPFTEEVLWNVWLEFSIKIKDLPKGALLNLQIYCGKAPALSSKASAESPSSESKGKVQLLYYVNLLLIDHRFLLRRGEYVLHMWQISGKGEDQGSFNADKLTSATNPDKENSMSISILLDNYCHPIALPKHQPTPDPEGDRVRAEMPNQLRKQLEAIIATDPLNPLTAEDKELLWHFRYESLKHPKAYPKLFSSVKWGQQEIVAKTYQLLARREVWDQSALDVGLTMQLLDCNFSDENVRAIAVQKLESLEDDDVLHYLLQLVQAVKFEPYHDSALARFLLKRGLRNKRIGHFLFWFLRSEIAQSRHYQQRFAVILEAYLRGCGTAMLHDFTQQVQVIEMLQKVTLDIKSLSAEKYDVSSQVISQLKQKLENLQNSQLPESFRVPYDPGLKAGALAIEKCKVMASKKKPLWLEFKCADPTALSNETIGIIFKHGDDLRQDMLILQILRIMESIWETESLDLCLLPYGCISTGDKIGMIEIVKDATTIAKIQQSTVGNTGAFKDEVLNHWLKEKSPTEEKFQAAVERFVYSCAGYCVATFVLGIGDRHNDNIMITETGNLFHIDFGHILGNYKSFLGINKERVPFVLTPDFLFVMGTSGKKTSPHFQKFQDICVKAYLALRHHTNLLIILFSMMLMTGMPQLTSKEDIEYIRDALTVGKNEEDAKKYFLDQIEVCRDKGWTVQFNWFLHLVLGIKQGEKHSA

SMILES: Nc1ncnc2c1ncn2[C@@H]1O[C@H](COP(=O)(O)OP(=O)(O)OP(=O)(O)O)[C@@H](O)[C@H]1O [ATP]
- Km (p38γ [1]; p38γ, read-out: ATP Km): 3.2 ± 0.4 µM

SMILES: Cc1nc(NC(=O)N2CCC[C@H]2C(N)=O)sc1-c1csc(C(C)(C)C)n1 [Compound A66]
- effect on viability of Hut78 cells (Hut78 cells [2]): no influence
- phosphorylation of Akt at ser473 [3]: dose-dependent inhibition
- inhibitory kinase activity against p38γ (p38 γ): no inhibitory kinase activities; also recorded: doesn't inhibit

SMILES: Cc1ccc([N+](=O)[O-])cc1S(=O)(=O)N(C)/N=C/c1cnc2ccc(Br)cn12 [Compound F7]
- inhibition of growth (healthy CD4+ T cells): but not healthy CD4+ T cells
- IC50 (H9 cells): 46 nM
- cell viability in Hut78 cells (Hut78 cells [4]; FIG. 19B / FIG. 29A): reduced cell viability
- inhibition of growth (Hut78 cells [4]; Hut78 CTCL cells, FIG. 19E): inhibition of growth
- induction of apoptosis (Hut78 cells [4]; Hut78 CTCL cells, data not shown): selective induction of apoptosis
- proliferation of Hut78 cells (Hut78 cells [4]; compared with Pirfenidone, FIG. 7): reduced proliferation of Hut78 cells more effectively than Pirfenidone
- IC50 (PI3Kγ): 76 nM
- inhibition of kinase activity (p38δ): selective, dose-dependent inhibition
- AnnexV_PI [5]: 17.8 Percentage
- Live cells [5]: 42.797 Percentage
- PI Stained [5]: 35.2 Percentage
- mechanism of inhibition (p38γ [1]; versus ATP): competitive mechanism
- killing of CTCL cells (CTCL cells [6]): selectively kills CTCL cells at nanomolar concentrations
- effectiveness against CTCL cells (CTCL cells [6]; compared with PI3K-specific inhibitor A66, FIG. 28): more effective against CTCL cells than a PI3K-specific inhibitor
- inhibition of CTCL cell growth (CTCL cells [6]; compared with Vorinostat (SAHA)): more potent inhibitor of CTCL cell growth than the FDA-approved HDACi Vorinostat
- IC50 (Hut78 cells [2]): 42 nM
- IC50 (HH cells): 34 nM
- phosphorylation of p38γ substrate DLGH1 at Ser158 [7]: reduced phosphorylation
- AnnexV_PI (Hut78 CTCL cell line): 25.5 Percentage
- Live cells (Hut78 CTCL cell line): 44.48 Percentage
- PI Stained (Hut78 CTCL cell line): 29.53 Percentage
- inhibition of kinase activity (p38γ [8]): selective, dose-dependent inhibition
- phosphorylation of p38γ substrate DLGH1 at Ser158 [9]: reduced phosphorylation
- inhibition of growth (SS patient cells; FIG. 19E): inhibition of growth
- induction of apoptosis (SS patient cells; data not shown): selective induction of apoptosis
- inhibition of tumor growth (Hut78 xenografts; 2 mg/kg, p=0.015, versus vehicle control): statistically significant dose-dependent inhibition of tumor growth
- inhibition of tumor growth (Hut78 xenografts; 10 mg/kg, p=0.025, versus vehicle control): statistically significant dose-dependent inhibition of tumor growth
- protein expression of p38 gamma (p38γ [10]): reduces and eliminates the protein expression

SMILES: CC(C)(C)Cn1c(N)nc2ccc(-c3[nH]c(C(C)(C)C)nc3-c3ccc(F)cc3)nc21 [LY2228820]
- p38γ inhibition (p38γ [11]): caused p38γ inhibition

Further lines, with some results ahead:

- inhibitory kinase activity against p38γ (p38 γ): no inhibitory kinase activities
SMILES: Cn1c(=O)n(-c2ccc(C(C)(C)C#N)cc2)c2c3cc(-c4cnc5ccccc5c4)ccc3ncc21 [BEZ235, Dactolisib]
- effect on viability of Hut78 cells (Hut78 cells [2]): only modest reduction of cell viability

- IC50 (p38 γ): ~3400 nM
SMILES: Cc1ccc([N+](=O)[O-])cc1S(=O)(=O)N(C)/N=C/c1cnc2ccc(-c3ccc(F)nc3)cn12 [Compound F7D10]
- IC50 (Hut78 cells [2]): ~2500 nM

- inhibitory kinase activity against p38γ (p38 γ): no inhibitory kinase activities
SMILES: CS(=O)(=O)N1CCN(Cc2cc3nc(-c4cccc5[nH]ncc45)nc(N4CCOCC4)c3s2)CC1 [GDC-0941, Pictilisib]
- effect on viability of Hut78 cells (Hut78 cells [2]): only modest reduction of cell viability

- IC50 (p38 γ): > 125000 nM
SMILES: Cc1ccc(=O)n(-c2ccccc2)c1 [Pirfenidone]
- IC50 (H9 cells): > 125000 nM
- IC50 (Hut78 cells [2]): > 125000 nM
- IC50 (HH cells): > 125000 nM
- IC50 (CTCL cells [12]): > 125000 nM
- p38γ inhibition in mice (p38γ [13]): inhibits p38γ in mice

Reference: patent US20230190717A1, “P38 GAMMA INHIBITORS AND METHOD OF USE THEREOF” (City of Hope, priority 2017, published 2023)
